Laboratory results: patent US20240139229A1, “TREATMENT FOR AORTOPATHY” (UNIVERSITY OF KENTUCKY RESEARCH FOUNDATION, priority 2021, published 2024)

System: BAPN-induced aortic aneurysm and dissection
Test: Disulfiram in BAPN-induced aortopathy mouse model, survival
Format: in vivo
Conditions: male C57BL/6J mice, 3 weeks old, BAPN 0.5% wt/vol in drinking water for 28 days, disulfiram 10 mg/mL in sesame oil, daily I.P. 100 μL per 20 g body weight, day -1 to 27, compared to vehicle
Description: For the evaluation, an animal model of aortic aneurysm as described above was used to evaluate effects of disulfiram on aortic aneurysm/aortopathy. The model comprised administration of BAPN, i.e., BAPN-induced aortopathy in a mouse model. Specifics of induction of hypercholesteremia and administration of BAPN were substantially as described supra. Male C57BL/6J mice at 3 weeks old were administered beta-aminopropionitrile (BAPN, 0.5% wt/vol) in drinking water for 28 days to induce aortic aneurysm and dissection.
The mice were separated randomly into two groups: control and treatment. For the control group, sesame oil was administered daily via intraperitoneal (I.P.) injection at 100 μL per 20 g body weight from day −1 to 27 (day −1 is the day before the first day of BAPN administration). Simultaneously, for treatment group, disulfiram at 10 mg/mL in sesame oil was administered daily via I.P. injection at 100 μL per 20 g body weight. Animal survival was monitored for 28 days during BAPN administration.

CCN(CC)C(=S)SSC(=S)N(CC)CC [disulfiram, tetraethyldisulfanedicarbothioamide]
Animal survival: statistically significant increases in days of survival | Animal survival (listed as Disulfiram): protects against death from aortopathy
